Experimental data: patent publication US20070093460A1, “Methods of using selective 11beta-HSD inhibitors to treat gluocorticoid associated states” (priority 2005, published 2007)
“Also recorded” adds a separate entry of the source. Read-outs that look alike come from different tables or passages of the source.

Assays:
[1] = target: T1, 11β-HSD1 Reductase (Rattus norvegicus, UniProt P16232); experiment: Table 1: inhibition of 11β-HSD1 reductase; type: biochemical; conditions: Table 1, inhibition in words
[2] = target: T2, 11β-HSD1 Dehydrogenase (Rattus norvegicus, UniProt P16232); experiment: Table 1: inhibition of 11β-HSD1 dehydrogenase; type: biochemical; conditions: Table 1, inhibition in words
[3] = target: T1, 11β-HSD1 Reductase; experiment: 11β-HSD1 reductase assay in rat Leydig cell homogenates; conditions: for inhibitors of 11β-HSD1 reductase (summary in words): summary of the screening;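 on all read-outs here: rat Leydig cell homogenate incubated 20 min at 37 °C, pH 7.4, with tritiated 11-dehydro-corticosterone and 3 mM NADPH, product measured by HPLC, inhibition from triplicate dose–response curves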
Procedure: Each enzyme reaction (described below) was stopped by adding 750 μL MeOH. After centrifugation, an aliquot of supernatant was analyzed by HPLC using a DuPont Zorbax C8 column.
11β-HSD1 dehydrogenase was assayed by incubating homogenates (13,000 cells equivalent) with 600 nM [^3H]-B (0.5 μCi) in the presence of 3 mM NADP, 50 mM Tris-HCl; pH 8.4 at 37° C. for 10 minutes in a total volume of 250 μL. 11β-HSD1 reductase was assayed by incubating homogenates (52,000 cells equivalent) with 600 nM [^3H]-11-dehydro-corticosterone in presence of 3 mM NADPH, 50 mM Tris-HCl; pH 7.4 at 37° C. for 20 minutes in a total volume of 250 μL.
Each concentration was tested in triplicate and the dose response curve, showing percentage inhibition versus log concentration of steroid was plotted. The data fitted a log-linear straight line.

[4] = target: T2, 11β-HSD1 Dehydrogenase; experiment: 11β-HSD1 dehydrogenase assay in rat Leydig cell homogenates; type: biochemical; design: Freshly prepared rat Leydig cell homogenates were chosen since they provide a rich and reliable source of both 11β-HSD1 dehydrogenase and reductase; from tissue; host or cells: rat testicular Leydig cells, homogenate; conditions: for inhibitors of 11β-HSD1 dehydrogenase (summary in words): summary of the screening;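 on all read-outs here: tritiated corticosterone conversion by 11β-HSD1 dehydrogenase in Leydig homogenates with 3 mM NADP at pH 8.4, 37 °C for 10 min, products resolved by HPLC, inhibition relative to uninhibited enzyme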
[5] = target: T3, 11β-HSD2 (Ovis aries, UniProt P50168); experiment: 11β-HSD2 enzyme activity in sheep kidney microsomes; type: biochemical
T3 construct: incubating sheep kidney microsomal fraction (6.5 μg protein) with 50 nM corticosterone; from tissue; host or cells: sheep kidney microsomal fraction
T3 sequence (P50168 1-427): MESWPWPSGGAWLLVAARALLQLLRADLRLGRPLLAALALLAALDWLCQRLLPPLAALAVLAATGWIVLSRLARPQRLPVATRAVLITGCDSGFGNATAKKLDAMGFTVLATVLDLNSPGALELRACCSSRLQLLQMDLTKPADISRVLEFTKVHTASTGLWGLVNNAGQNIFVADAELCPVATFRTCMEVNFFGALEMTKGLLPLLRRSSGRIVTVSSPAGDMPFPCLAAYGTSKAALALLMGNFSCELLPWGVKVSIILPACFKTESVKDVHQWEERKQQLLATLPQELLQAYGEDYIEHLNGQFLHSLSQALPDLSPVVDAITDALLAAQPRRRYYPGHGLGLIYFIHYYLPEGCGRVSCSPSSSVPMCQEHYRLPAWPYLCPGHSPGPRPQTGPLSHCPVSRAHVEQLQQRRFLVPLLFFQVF
Excerpt: The enzymatic reaction was termninated by addition of methanol and synthesis of 11-dehydro-corticosterone was quantitated by HPLC as described above.

[6] = target: T4, 11β-HSD2 Dehydrogenase (Ovis aries, UniProt P50168); experiment: Table 1: inhibition of 11β-HSD2 dehydrogenase; type: biochemical; conditions: Table 1, inhibition in words
T4 sequence (P50168 1-427): T3 sequence (P50168 1-427)

[7] = rat Leydig cell homogenates, 600 nM corticosterone, NADP, corticosteroid series, read-out: Leydig Cell 11β-HSD1 Dehydrogenase [S]= 600 nM
[8] = rat Leydig cell homogenates, 600 nM corticosterone, progesterone and androgen derivatives, read-out: Leydig Cell 11β-HSDl Dehydrogenase [S] = 600 nM
[9] = 11β-HSD2, sheep kidney microsomes, 50 nM corticosterone, NAD+, aldosterone, cortisol, corticosterone series
[10] = 11β-HSD2, sheep kidney microsomes, 50 nM corticosterone, NAD+, aldosterone, cortisol, corticosterone series, read-out: Dehydrogenase [S] = 50 nM
[11] = rat Leydig cell homogenates, 600 nM 11-dehydro-corticosterone, NADPH, corticosteroid series
[12] = read-out: Leydig Cell 11β-HSD1 Reductase [S]= 600 nM, rat Leydig cell homogenates, 600 nM 11-dehydro-corticosterone, NADPH, corticosteroid series
[13] = rat Leydig cell homogenates, 600 nM corticosterone, NADP, corticosteroid series
[14] = read-out: Leydig Cell 11β-HSD1 Reductase [S] = 600 nM, rat Leydig cell homogenates, 600 nM 11-dehydro-corticosterone, progesterone and androgen derivatives

T2 sequence (P16232 whole entry): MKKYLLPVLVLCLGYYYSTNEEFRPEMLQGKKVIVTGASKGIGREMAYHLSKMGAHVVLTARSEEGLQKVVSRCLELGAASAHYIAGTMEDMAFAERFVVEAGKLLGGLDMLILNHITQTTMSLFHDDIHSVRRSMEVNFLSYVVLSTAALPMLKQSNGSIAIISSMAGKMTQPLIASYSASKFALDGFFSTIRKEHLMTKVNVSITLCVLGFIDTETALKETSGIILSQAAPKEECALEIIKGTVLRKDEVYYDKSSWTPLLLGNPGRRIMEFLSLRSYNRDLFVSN
T1 sequence (P16232 whole entry): as above

## C[C@]12CC[C@@H](O)C[C@H]1CC[C@@H]1[C@H]2C(=O)C[C@]2(C)[C@@H](O)CC[C@@H]12 [3α,5α-reduced-11-keto-testosterone]
[1]
  11β-HSD1 Reductase: Selective Inhibitor
[2]
  11β-HSD1 Dehydrogenase: No Inhibition

## C[C@]12CC[C@@H](O)C[C@H]1CC[C@@H]1[C@@H]2C(=O)C[C@@]2(C)[C@H]1CC[C@]2(O)C(=O)CO [3α,5β-TH-Cortisone, 5β-Pregnan-3α, 17α,21-triol-11,20-dione]
[3]
  IC50: 60 µM
[4]; [7]
  IC50: > 100 µM

## CC(=O)[C@H]1CC[C@@H]2[C@@H]3CCC4=CC(=O)CC[C@]4(C)[C@@H]3[C@@H](O)C[C@]12C [11β-OH-Progesterone, 4-Pregnen-11β-ol-3,20-dione]
[1]
  11β-HSD1 Reductase: No Inhibition
[2]
  11β-HSD1 Dehydrogenase: Potent Inhibitor (Non-Selective)
[3]
  IC50: > 100 µM
[3]; rat Leydig cell homogenates, 600 nM 11-dehydro-corticosterone, progesterone and androgen derivatives
  Leydig Cell 11β-HSD1 Reductase [S]= 600 nM: inactive
[4]; [8]
  IC50: 5.6 µM
[4]
  inhibitors of 11β-HSD1 dehydrogenase (summary in words): potent inhibitors; also recorded: high potency
[4]; listed as 11β-hydroxy-progesterone
  inhibitors of 11β-HSD1 dehydrogenase (summary in words): potently inhibit

## C[C@]12CC[C@@H](O)C[C@H]1CC[C@@H]1[C@H]2C(=O)C[C@]2(C)C(=O)CC[C@@H]12 [11 -Keto-androsterone, 5α-Androstan-3a-ol-11,1 7-dione]
[5]
  IC50: > 10 µM
[1]
  11β-HSD1 Reductase: Selective Inhibitor
[2]
  11β-HSD1 Dehydrogenase: No Inhibition
[3]
  IC50: > 100 µM
[4]
  IC50: > 100 µM

## C[C@]12CC[C@@H](O)C[C@H]1CC[C@@H]1[C@@H]2[C@@H](O)C[C@]2(C=O)[C@@H](C(=O)CO)CC[C@@H]12 [3α,5β-TH-Aldosterone, 5β-Pregnan-3α,11β,21-triol-20-one-18-al]
[5]; [9]
  Dehydrogenase [S] = 50 nM: inactive
[5]; [10]
  IC50: > 10 µM
[3]; [11]
  Leydig Cell 11β-HSD1 Reductase [S]= 600 nM: inactive
[3]; [12]
  IC50: > 100 µM
[4]; [13]
  Leydig Cell 11β-HSD1 Dehydrogenase [S]= 600 nM: inactive
[4]; [7]
  IC50: > 100 µM

## C[C@]12CC[C@@H](O)C[C@@H]1CC[C@@H]1[C@@H]2[C@@H](O)C[C@]2(C)[C@@H](O)CC[C@@H]12 [11β-OH-androstanediol, 5α-Androstan-3α,11β,17β-triol]
[5]
  IC50: 4.5 µM
[3]
  IC50: 11.5 µM
[4]
  IC50: 5 µM
  inhibitors of 11β-HSD1 dehydrogenase (summary in words): potent inhibitors; also recorded: high potency

## C[C@]12CCC(=O)C=C1CC[C@@H]1[C@@H]2[C@@H](O)C[C@]2(C=O)[C@@H](C(=O)CO)CC[C@@H]12 [Aldosterone, 4-Pregnen-11,21-diol-3,20-dione-18-al, reference compound]
[5]; [9]
  Dehydrogenase [S] = 50 nM: inactive
[5]; [10]
  IC50: > 10 µM
[3]
  IC50: > 100 µM
[3]; [11]
  Leydig Cell 11β-HSD1 Reductase [S]= 600 nM: inactive
[4]; [13]
  Leydig Cell 11β-HSD1 Dehydrogenase [S]= 600 nM: inactive
[4]; [7]
  IC50: > 100 µM

## C[C@]12CC[C@@H](O)C[C@H]1CC[C@@H]1[C@@H]2C(=O)C[C@]2(C)C(=O)CC[C@@H]12 [11 -Keto-etiocholanolone]
[3]; [14]
  IC50: > 100 µM
[4]; [8]
  IC50: > 100 µM

## C[C@]12CC[C@@H](O)C[C@@H]1CC[C@@H]1[C@@H]2C(=O)C[C@@]2(C)[C@H]1CC[C@]2(O)C(=O)CO [3α,5α-TH- Cortisone, 5α-Pregnan-3α,17α,21-triol-11,20-dione]
[3]
  IC50: 4.3 µM
[4]; [7]
  IC50: > 100 µM

## C[C@]12CC[C@@H](O)C[C@H]1CC[C@@H]1[C@H]2[C@@H](O)C[C@]2(C)C(=O)CC[C@H]12 [3α,5β-reduced- 11β-OH- androstenedione]
[1]
  11β-HSD1 Reductase: No Inhibition
[2]
  11β-HSD1 Dehydrogenase: Moderate Inhibitor
[6]
  11β-HSD2 Dehydrogenase: Potent Inhibitor (Non-Selective)

## C[C@]12CC[C@H](O)C[C@@H]1CC[C@H]1[C@@H]3CC[C@H](O)[C@@]3(C)CC(=O)[C@@H]12 [11 -Keto-3β,5α-TH-Testosterone]
[5]; sheep kidney microsomes, corticosterone substrate, progesterone and androgen derivatives, read-out: Sheep kidney 11β-HSD2 [S] = 50 nM
  IC50: 8 µM
[3]; [14]
  IC50: 0.65 µM
[3]; listed as 11-Keto-3β,5α-TH-Testosterone
  inhibitors of 11β-HSD1 reductase (summary in words): potent inhibitors
[3]; listed as 11-keto-3β,5α-TH-testosterone
  inhibitors of 11β-HSD1 reductase (summary in words): high potency
[4]; rat Leydig cell homogenates, 600 nM corticosterone, progesterone and androgen derivatives
  Leydig Cell 11β-HSDl Dehydrogenase [S] = 600 nM: weak inhibitor
[4]; [8]
  IC50: 50 µM

## C[C@]12CC[C@@H](O)C[C@@H]1CC[C@@H]1[C@@H]2[C@@H](O)C[C@@]2(C)[C@H]1CC[C@]2(O)C(=O)CO [3α,5α-TH-Cortisol, 5α-Pregnan-3α,11β,17α,21-tetrol-20-one]
[5]; [10]
  IC50: 8 µM
[3]
  IC50: > 100 µM
[3]; [11]
  Leydig Cell 11β-HSD1 Reductase [S]= 600 nM: inactive
[4]; [13]
  Leydig Cell 11β-HSD1 Dehydrogenase [S]= 600 nM: inactive
[4]; [7]
  IC50: 14 µM

## C[C@]12CC[C@@H](O)C[C@H]1CC[C@@H]1[C@@H]2[C@@H](O)C[C@]2(C)C(=O)CC[C@@H]12 [11β-OH-etiocholanolone]
[3]; [14]
  IC50: > 100 µM
[4]; [8]
  IC50: > 100 µM

## CC(=O)[C@H]1CC[C@H]2[C@@H]3CC[C@@H]4C[C@H](O)CC[C@]4(C)[C@H]3[C@@H](O)C[C@]12C [11β-OH-pregnanolone, 5β-Pregnan-3α,11β-diol-20-one]
[5]
  IC50: > 10 µM
[5]; sheep kidney microsomes, corticosterone substrate, progesterone and androgen derivatives
  Sheep kidney 11β-HSD2 [S] = 50 nM: inactive
[3]
  IC50: 80 µM
[4]
  IC50: 30 µM

## C[C@]12CC[C@@H](O)C[C@H]1CC[C@H]1[C@@H]3CC[C@H](C(=O)CO)[C@@]3(C)CC(=O)[C@@H]12 [3α,5β-TH- 11 -dehydro-corticosterone, 5β-Pregnan-3α,21-diol-11,20-dione]
[5]; [9]
  Dehydrogenase [S] = 50 nM: inactive
[5]; [10]
  IC50: > 10 µM
[3]; [11]
  Leydig Cell 11β-HSD1 Reductase [S]= 600 nM: inactive
[3]; [12]
  IC50: > 100 µM
[4]; [13]
  Leydig Cell 11β-HSD1 Dehydrogenase [S]= 600 nM: inactive
[4]; [7]
  IC50: > 100 µM

## C[C@]12CC[C@@H](O)C[C@H]1CC[C@@H]1[C@@H]2[C@@H](O)C[C@]2(C)[C@@H](C(=O)CO)CC[C@@H]12 [3α,5β-TH-Corticosterone, 5β-Pregnan-3α,11β,21-triol-20-one]
[5]; [9]
  Dehydrogenase [S] = 50 nM: inactive
[5]; [10]
  IC50: > 10 µM
[3]
  IC50: > 100 µM
[3]; [11]
  Leydig Cell 11β-HSD1 Reductase [S]= 600 nM: inactive
[4]; [13]
  Leydig Cell 11β-HSD1 Dehydrogenase [S]= 600 nM: inactive
[4]; [7]
  IC50: > 100 µM

## C[C@]12CC[C@@H](O)C[C@H]1CC[C@@H]1[C@@H]2[C@@H](O)C[C@@]2(C)[C@H]1CC[C@]2(O)C(=O)CO [3α,5β-TH-Cortisol, 5β-Pregnan-3α,11β,17α,21-tetrol-20-one]
[5]; [9]
  Dehydrogenase [S] = 50 nM: inactive
[5]; [10]
  IC50: > 10 µM
[3]
  IC50: > 100 µM
[3]; [11]
  Leydig Cell 11β-HSD1 Reductase [S]= 600 nM: inactive
[4]; [13]
  Leydig Cell 11β-HSD1 Dehydrogenase [S]= 600 nM: inactive
[4]; [7]
  IC50: > 100 µM

## C[C@]12CC[C@@H](O)C[C@@H]1CC[C@@H]1[C@@H]2[C@@H](O)C[C@]2(C)C(=O)CC[C@@H]12 [11β-OH-androsterone, 5α-Androstan-3ct,11β-diol-17-one]
[5]
  IC50: > 10 µM
[3]
  IC50: > 100 µM
[4]
  IC50: > 100 µM
